Assay results reported in patent US8198287B2, “Substituted heteroaryl pyridopyrimidone derivatives” (Sanofi-Aventis, priority 2006, dated 2012).

target: GSK3β (Homo sapiens, UniProt P49841); assay: Inhibitory activity against GSK3β (33P-ATP phosphorylation of prephosphorylated GS1 peptide; two alternative protocols); type: biochemical; settings: first or second protocol, not specified per compound
Experimental: Inhibitory Activity of the Medicament of the Present Invention Against GSK3β
Two different protocols can be used.
In a first protocol: 7.5 μM of prephosphorylated GS1 peptide and 10 μM ATP (containing 300,000 cpm of ^33P-ATP) were incubated in 25 mM Tris-HCl, pH 7.5, 0.6 mM DTT, 6 mM MgCl2, 0.6 mM EGTA, 0.05 mg/ml BSA buffer for 1 hour at room temperature in the presence of GSK3beta (total reaction volume: 100 microliters).
In a second protocol: 4.1 μM of prephosphorylated GS1 peptide and 42 μM ATP (containing 260,000 cpm ^33P-ATP) were incubated in 80 mM Mes-NaOH, pH 6.5, 1 mM Mg acetate, 0.5 mM EGTA, 5 mM 2-mercaptoethanol, 0.02% Tween 20, 10% glycerol buffer for 2 hours at room temperature in the presence of GSK3beta.
Inhibitors were solubilized in DMSO (final solvent concentration in the reaction medium, 1%).
The reaction was stopped with 100 microliters of a solution made of 25 g polyphosphoric acid (85% P2O5), 126 ml 85% H3PO4, H2O to 500 ml and then diluted to 1:100 before use. An aliquot of the reaction mixture was then transferred to Whatman P81 cation exchange filters and rinsed with the solution described above. Incorporated ^33P radioactivity was determined by liquid scintillation spectrometry.
The phosphorylated GS-1 peptide had the following sequence:
NH2—[…](P)EDEE-COOH. (Woodgett, J. R. (1989) Analytical Biochemistry 180, 237-241.

GSK3β, sequence (P49841 whole entry): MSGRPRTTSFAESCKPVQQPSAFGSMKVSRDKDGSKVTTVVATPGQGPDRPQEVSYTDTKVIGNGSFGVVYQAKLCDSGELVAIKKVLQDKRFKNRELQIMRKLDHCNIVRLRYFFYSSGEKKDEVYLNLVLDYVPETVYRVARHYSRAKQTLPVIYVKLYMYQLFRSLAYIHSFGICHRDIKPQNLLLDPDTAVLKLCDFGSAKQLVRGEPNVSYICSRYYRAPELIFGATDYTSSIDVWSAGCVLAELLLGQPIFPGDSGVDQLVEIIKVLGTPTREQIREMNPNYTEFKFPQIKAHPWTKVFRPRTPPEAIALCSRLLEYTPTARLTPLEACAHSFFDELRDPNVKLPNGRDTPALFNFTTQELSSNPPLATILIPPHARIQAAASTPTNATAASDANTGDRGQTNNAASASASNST

IC50	Compound
4 nM	CSc1ncc(Cl)c(C(=O)NC2CCn3c2nc(-c2ccncn2)cc3=O)n1 (racemic) [14 of table 2, (+/−)5-Chloro-2-methylsulfanyl-pyrimidine-4-carboxylic acid (4-oxo-2-pyrimidin-4-yl-4,6,7,8-tetrahydro-pyrrolo[1,2-a]pyrimidin-8-yl) -amide]
5 nM	O=C(NC1CCCCn2c1nc(-c1ccncn1)cc2=O)c1cccc(Cl)n1 (racemic) [53 of table 3, (+/−)6-Chloro-pyridine-2-carboxylic acid (4-oxo-2-pyrimidin-4-yl-4,6,7,8,9,10-hexahydro-pyrimido[1,2-a]azepin-10-yl)-amide]
14 nM	Nc1c(Cl)cc(C(=O)NC2CCCn3c2nc(-c2ccncc2)cc3=O)c2c1OCCO2 (racemic) [13 of table 1, (+/−)8-Amino-7-chloro-2,3-dihydro-benzo[1,4]dioxine-5-carboxylic acid (4-oxo-2-pyridin-4-yl-6,7,8,9-tetrahydro-4H-pyrido[1,2-a]pyrimidin-9-yl)-amide]
